10 compounds from patent US20240124483A1, “Methods for the Treatment of Fibrotic Disease” (SHY Therapeutics, LLC, priority 2021, published 2024) can be followed below.

Like-named read-outs stand apart in the source and are kept apart here.

The subject of test [1] is JNK. Description: JNK Activation Assay in Panc-1 (western blot). It is filed as cell-based, Human. Further details: key: Y = yes; N = No. The following applies: at 10 μM. In a few lines: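 Cells were serum-starved overnight in 0.5% FBS, then given compound (10 μM single dose or serial dilutions, 0.3% DMSO) for 3 h at 37 °C. TGF-b1 at 10 ng/ml followed, 1 h for Panc-1 and 20 min for C2C12. Phospho-JNK (Thr183/Tyr185) was read by western blot of lysates.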
Background: Immunoblotting shows a protein as a band on a membrane.

For test [2], the target named is KRas wild type (Homo sapiens (Human), UniProt P01116). Description: Ras GTP Binding Domain Inhibition Assay, KRas wild type. In a few lines:
(§1)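 Steps: coat His-tagged protein (10-30 μg/mL) on nickel wells overnight at 4° C; add test compound, 20 μM final or serial dilution, 1% DMSO, 3 h RT; optional Sos final hour; add 100 nM Cy3-GTP or Cy5-GTP, 45 min; wash and read fluorescence.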

The target of test [3] is KRas G12D mutant (Homo sapiens (Human), UniProt P01116, G12D). Description: Ras GTP Binding Domain Inhibition Assay, KRas G12D mutant. Particulars: for inhibition at 20 µM: Table 7; for KRas G12D mutant + SOS: % inh. / KRas G12D mutant: % inh.: 20 uM, Table 8. The method, boiled down:
as §1

Test [4] deals with KRas G12C mutant (Homo sapiens (Human), UniProt P01116, G12C). Description: Ras GTP Binding Domain Inhibition Assay, KRas G12C mutant. In a few lines:
as §1

In test [5] the target is Rho-A (Homo sapiens (Human), UniProt P61586). Description: Ras GTP Binding Domain Inhibition Assay, Rho-A. Particulars: without SOS, read-out: Rho-A: % inh. In a few lines:
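Fluorescent GTP binding to plate-captured His-tagged Ras: compound 20 μM (or dilution series for IC50), 3 h RT, ±Sos GEF 10-30 μg/mL last hour; then 100 nM Cy3/Cy5-GTP 45 min RT, wash ×3, read bound label.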

[6] abbreviates: + SOS, read-out: KRas wild type + SOS: % inh.
Where [7] appears, read: without SOS, read-out: KRas wild type: % inh.
[8] abbreviates: + SOS, read-out: KRas G12D mutant + SOS: % inh.
Where [9] appears, read: without SOS, read-out: KRas G12D mutant: % inh.
Setting [10] is: + SOS, read-out: KRas G12C mutant + SOS: % inh.
Where [11] appears, read: without SOS, read-out: KRas G12C mutant: % inh.

KRas wild type, sequence (P01116 other isoform, or with tags, fused parts or gaps): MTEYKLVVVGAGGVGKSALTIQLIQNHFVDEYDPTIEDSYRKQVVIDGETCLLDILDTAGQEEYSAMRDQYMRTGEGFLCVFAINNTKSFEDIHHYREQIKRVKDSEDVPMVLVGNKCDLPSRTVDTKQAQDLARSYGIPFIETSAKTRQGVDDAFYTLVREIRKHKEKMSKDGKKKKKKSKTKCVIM
Rho-A, sequence (P61586 whole entry, species assumed, the tested form may be a part): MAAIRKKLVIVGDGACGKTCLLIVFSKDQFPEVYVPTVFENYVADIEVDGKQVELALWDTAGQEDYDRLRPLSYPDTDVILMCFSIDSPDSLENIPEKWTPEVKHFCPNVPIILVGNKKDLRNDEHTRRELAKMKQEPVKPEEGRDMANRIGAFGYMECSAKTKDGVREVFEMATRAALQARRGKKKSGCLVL
KRas G12D mutant, sequence (P01116 other isoform, or with tags, fused parts or gaps G12D): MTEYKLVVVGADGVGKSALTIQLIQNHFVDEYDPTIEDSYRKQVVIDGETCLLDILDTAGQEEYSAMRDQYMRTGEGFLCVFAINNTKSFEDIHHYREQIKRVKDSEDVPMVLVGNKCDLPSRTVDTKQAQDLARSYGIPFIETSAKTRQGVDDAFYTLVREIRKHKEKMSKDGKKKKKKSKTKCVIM
KRas G12C mutant, sequence (P01116 other isoform, or with tags, fused parts or gaps G12C): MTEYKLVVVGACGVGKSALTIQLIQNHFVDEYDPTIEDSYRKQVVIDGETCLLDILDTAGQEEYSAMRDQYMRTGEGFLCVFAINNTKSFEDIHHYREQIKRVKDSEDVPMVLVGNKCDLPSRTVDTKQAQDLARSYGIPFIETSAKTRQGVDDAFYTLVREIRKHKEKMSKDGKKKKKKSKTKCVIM

For the compound `COCCO[C@H]1CC[C@@H](Nc2nc(-c3nccn3C)nc3sc(-c4ccn(C(C)C)n4)c(C)c23)C1` (racemic) [Compound 20, rac-6-(1-Isopropyl-1H-pyrazol-3-yl)-N-((1R,3S)-3-(2-methoxyethoxy)cyclopentyl)-5-methyl-2-(1-methyl-1H-imidazol-2-yl)thieno[2,3-d]pyrimidin-4-amine], the “Activation of JNK in PANC-1” value in test [1] was “Y”. For the same compound, the inhibition at 20 µM in test [2] (setting [6]), in test [2] (setting [7]), in test [3] (setting [8]), in test [3] (setting [9]), in test [4] (setting [10]) and in test [4] (setting [11]) was 76 to 100% in each case. For the same compound, the inhibition at 20 µM in test [5] fell in the range of 46 to 75%. Further, the “KRas G12D mutant + SOS: % inh.” value in test [3] (+ SOS) is listed as “D (D = 76-100% inhibition)”. Besides, the “KRas G12D mutant: % inh.” value in test [3] (without SOS) was “D (D = 76-100% inhibition)”.
Consider `COCCn1c(-c2nccn2C)nc2sc(-c3ccn(C(C)C)n3)c(C)c2c1=O` [Compound 29, 6-(1-Isopropyl-1H-pyrazol-3-yl)-3-(2-methoxyethyl)-5-methyl-2-(1-methyl-1H-imidazol-2-yl)thieno[2,3-d]pyrimidin-4(3H)-one], for which, in test [1], the “Activation of JNK in PANC-1” value is reported as “Y”. Also, the inhibition at 20 µM in test [2] (setting [6]) lay within 76 to 100%; in test [2] (setting [7]), 76 to 100%; in test [3] (setting [8]), 46 to 75%; in test [3] (setting [9]) it was 46 to 75%; in test [4] (setting [10]) it was 76 to 100%; in test [4] (setting [11]), 46 to 75%. Besides, the inhibition at 20 µM in test [5] lay in the range of 76 to 100%. Further, the “KRas G12D mutant + SOS: % inh.” value in test [3] (+ SOS) is on record as “C (C = 46-75% inhibition)”. Moreover, the “KRas G12D mutant: % inh.” value in test [3] (without SOS) is reported as “C (C = 46-75% inhibition)”.
For the compound `COCCCn1c(-c2nccn2C)nc2sc(-c3ccn(C(C)C)n3)c(C)c2c1=O` [Compound 31, 6-(1-Isopropyl-1H-pyrazol-3-yl)-3-(3-methoxypropyl)-5-methyl-2-(1-methyl-1H-imidazol-2-yl)thieno[2,3-d]pyrimidin-4(3H)-one], the “Activation of JNK in PANC-1” value in test [1] is on record as “N”. Also, the inhibition at 20 µM in test [2] (setting [6]) was 1 to 25%; in test [2] (setting [7]), 1 to 25%; in test [3] (setting [8]), 0%; in test [3] (setting [9]), 0%; in test [4] (setting [10]), 0%; in test [4] (setting [11]) it was 0%. Moreover, in test [5], the inhibition at 20 µM came to 0%. Moreover, the “KRas G12D mutant + SOS: % inh.” value in test [3] (+ SOS) is given as 0 (0 = 0% inhibition). In addition, in test [3] (without SOS), the “KRas G12D mutant: % inh.” value is 0 (0 = 0% inhibition).
For the compound `Cc1c(-c2ccn(C(C)C)n2)sc2nc(-c3nccn3C)nc(NCCN3CCS(=O)(=O)CC3)c12` [Compound 23, 4-(2-((6-(1-Isopropyl-1H-pyrazol-3-yl)-5-methyl-2-(1-methyl-1H-imidazol-2-yl)thieno[2,3-d]pyrimidin-4-yl)amino)ethyl)thiomorpholine 1,1-dioxide], the “Activation of JNK in PANC-1” value in test [1] was “N”. Moreover, the inhibition at 20 µM in test [2] (setting [6]) lay within 76 to 100%; in test [2] (setting [7]), 76 to 100%; in test [3] (setting [8]), 76 to 100%; in test [3] (setting [9]) it was 76 to 100%; in test [4] (setting [10]), 76 to 100%; in test [4] (setting [11]), 46 to 75%. The inhibition at 20 µM in test [5] lay in the range of 46 to 75%. The “KRas G12D mutant + SOS: % inh.” value in test [3] (+ SOS) is reported as “D (D = 76-100% inhibition)”. The “KRas G12D mutant: % inh.” value in test [3] (without SOS) is “D (D = 76-100% inhibition)”.
Turning to `Cc1c(-c2ccn(C(C)C)n2)sc2nc(-c3nccn3C)nc(NCC3CCCO3)c12` (racemic) [Compound 26, rac-6-(1-Isopropyl-1H-pyrazol-3-yl)-5-methyl-2-(1-methyl-1H-imidazol-2-yl)-N-((tetrahydrofuran-2-yl)methyl)thieno[2,3-d]pyrimidin-4-amine], in test [1], the “Activation of JNK in PANC-1” value is given as “Y”. The inhibition at 20 µM in test [2] (setting [6]) was in the range of 76 to 100%; in test [2] (setting [7]) it was 76 to 100%; in test [3] (setting [8]) it was 46 to 75%; in test [3] (setting [9]), 76 to 100%; in test [4] (setting [10]) it was 76 to 100%; in test [4] (setting [11]) it was 76 to 100%. Also, the inhibition at 20 µM in test [5] is 76 to 100%. Further, in test [3] (+ SOS), the “KRas G12D mutant + SOS: % inh.” value is listed as “C (C = 46-75% inhibition)”. Besides, in test [3] (without SOS), the “KRas G12D mutant: % inh.” value is “D (D = 76-100% inhibition)”.
As to `COCCCOc1nc(-c2nccn2C)nc2sc(-c3ccn(C(C)C)n3)c(-c3ccccc3)c12` [Compound 37, 6-(1-Isopropyl-1H-pyrazol-3-yl)-4-(3-methoxypropoxy)-2-(1-methyl-1H-imidazol-2-yl)-5-phenylthieno[2,3-d]pyrimidine], in test [1], the “Activation of JNK in PANC-1” value is on record as “N”. For the same compound, the inhibition at 20 µM in test [2] (setting [6]) is 1 to 25%; in test [2] (setting [7]), 0%; in test [3] (setting [8]) it was 0%; in test [3] (setting [9]), 0%; in test [4] (setting [10]), 0%; in test [4] (setting [11]), 0%. Besides, in test [5], the inhibition at 20 µM stood at 0%. The “KRas G12D mutant + SOS: % inh.” value in test [3] (+ SOS) is 0 (0 = 0% inhibition). Besides, the “KRas G12D mutant: % inh.” value in test [3] (without SOS) is listed as 0 (0 = 0% inhibition).
Consider `COc1cc(-c2sc3nc(-c4nccn4C)nc(N[C@H]4C[C@H](OC)C4)c3c2-c2ccccc2)ccn1` [Compound 46, N-((1r,3r)-3-Methoxycyclobutyl)-6-(2-methoxypyridin-4-yl)-2-(1-methyl-1H-imidazol-2-yl)-5-phenylthieno[2,3-d]pyrimidin-4-amine], for which, in test [1], the “Activation of JNK in PANC-1” value is recorded as “Y”. Moreover, the inhibition at 20 µM lay within 76 to 100% in test [2] (setting [6]); 46 to 75% in test [2] (setting [7]); 46 to 75% in test [3] (setting [8]); 46 to 75% in test [3] (setting [9]); 76 to 100% in test [4] (setting [10]); 26 to 45% in test [4] (setting [11]). In test [5], the inhibition at 20 µM was in the range of 46 to 75%. In addition, in test [3] (+ SOS), the “KRas G12D mutant + SOS: % inh.” value is on record as “C (C = 46-75% inhibition)”. Besides, the “KRas G12D mutant: % inh.” value in test [3] (without SOS) was “C (C = 46-75% inhibition)”.
Take `COc1cccc(-c2sc3nc(-c4nccn4C)nc(N[C@H]4C[C@H](OC)C4)c3c2C)c1F` [Compound 42, 6-(2-Fluoro-3-methoxyphenyl)-N-((1r,3r)-3-methoxycyclobutyl)-5-methyl-2-(1-methyl-1H-imidazol-2-yl)thieno[2,3-d]pyrimidin-4-amine]: the “Activation of JNK in PANC-1” value in test [1] is listed as “Y”. Also, the inhibition at 20 µM in test [2] (setting [6]) fell in the range of 76 to 100%; in test [2] (setting [7]), 76 to 100%; in test [3] (setting [8]), 76 to 100%; in test [3] (setting [9]), 26 to 45%; in test [4] (setting [10]), 76 to 100%; in test [4] (setting [11]), 46 to 75%. Also, in test [5], the inhibition at 20 µM lay within 46 to 75%. Besides, in test [3] (+ SOS), the “KRas G12D mutant + SOS: % inh.” value was “D (D = 76-100% inhibition)”. Further, the “KRas G12D mutant: % inh.” value in test [3] (without SOS) was “B (B = 26-45% inhibition)”.
Turning to `COCC1(OC)CCN(c2nc(-c3nccn3C)nc3sc(-c4ccn(C(C)C)n4)c(C)c23)C1` (racemic) [Compound 27, rac-6-(1-Isopropyl-1H-pyrazol-3-yl)-4-(3-methoxy-3-(methoxymethyl)pyrrolidin-1-yl)-5-methyl-2-(1-methyl-1H-imidazol-2-yl)thieno[2,3-d]pyrimidine], the “Activation of JNK in PANC-1” value in test [1] is listed as “Y”. For the same compound, the inhibition at 20 µM was 76 to 100% in test [2] (setting [6]); 76 to 100% in test [2] (setting [7]); 76 to 100% in test [3] (setting [8]); 46 to 75% in test [3] (setting [9]); 76 to 100% in test [4] (setting [10]); 76 to 100% in test [4] (setting [11]). The inhibition at 20 µM in test [5] lay in the range of 46 to 75%. In test [3] (+ SOS), the “KRas G12D mutant + SOS: % inh.” value is “D (D = 76-100% inhibition)”. The “KRas G12D mutant: % inh.” value in test [3] (without SOS) was “C (C = 46-75% inhibition)”.
Turning to `COCCn1ccc(-c2sc3nc(-c4nccn4C)nc(NC[C@H]4CC[C@H]4COC)c3c2C)n1` (racemic) [Compound 38, rac-6-(1-(2-Methoxyethyl)-1H-pyrazol-3-yl)-N-(((1S,2R)-2-(methoxymethyl)cyclobutyl)methyl)-5-methyl-2-(1-methyl-1H-imidazol-2-yl)thieno[2,3-d]pyrimidin-4-amine], the “Activation of JNK in PANC-1” value in test [1] is recorded as “Y”. In addition, the inhibition at 20 µM is 76 to 100% in test [2] (setting [6]); 46 to 75% in test [2] (setting [7]); 76 to 100% in test [3] (setting [8]); 26 to 45% in test [3] (setting [9]); 76 to 100% in test [4] (setting [10]); 46 to 75% in test [4] (setting [11]). Besides, the inhibition at 20 µM in test [5] was in the range of 26 to 45%. In test [3] (+ SOS), the “KRas G12D mutant + SOS: % inh.” value was “D (D = 76-100% inhibition)”. Besides, in test [3] (without SOS), the “KRas G12D mutant: % inh.” value was “B (B = 26-45% inhibition)”.
